Assay results taken from patent US7745446B2, “Pyrazolo[1,5-c]pyrimidines” (Bayer Schering Pharma Aktiengesellschaft, priority 2004, dated 2010).

Columns and labels:
GST-ΔPH-Akt1 = molecular target: T1, GST-ΔPH-Akt1 (Homo sapiens, UniProt P31749); assay: Biochemical ΔPH Akt1 assay (flashplate, 33P incorporation into histone 2B); conditions: 100 nM ATP, histone 2B substrate; read-out: ΔPHAkt1 inhibition: IC50
T1 construct: named GST-deltaPH-Akt1; 107-480aa; cloned in the pAcGl vector; GST (N); made in house; host or cells: SF9 insect cells (baculovirus vector pAcG1), co-expressed with PDK1
From the text: For the biochemical assay ΔPHAkt1 is used devoid of its PH domain as a GST fusion protein (named GST-deltaPH-Akt1; 107-480aa; cloned in the pAcGl vector (BD Biosciences Pharmingen)), co-expressed with PDK1 in SF9 insect cells. The protein is purified using glutathion-affinity chromatography by standard protocols.
In order to study the inhibition of Akt according to the invention, a flashplate-based assay has been developed.
The Akt1 assay is a biochemical assay using Akt1 devoid of its PH domain and co-expressed with PDK1 in insect cells. The GST-ΔPH-Akt1 assay is run in 96 well plates by incubating 100 ng/well GST-ΔPH-Akt1, 100 ng/well histone 2B (Roche, #223514) as substrate, 10 μl of compound of invention (test compounds were dissolved as 10 mM solutions in dimethylsulfoxide (DMSO) and subsequently diluted) and 100 nM ATP (including ^33P-ATP) in 100 μl of reaction buffer ([…], pH7,5; 3 mM MgCl2; 3 mM MnCl2; 3 μM Na-Orthovanadat; 1 mM DTT; 1 μg/ml PEG8000) for 80 minutes at 30° C. The reactions are terminated by adding 100 μl stopping buffer (2% H3PO4 for 5 minutes) and are washed 3 times by using washing buffer (0.9% NaCl). Relying on the incorporation of ^33P into the protein substrate histone 2B, the detection is based on the adhesion of the phosphorylated protein to the surface of scintillator-coated flash plates (NEN, USA; #SMP-200). This phosphorylation is measured by counting the plate for 60 sec. using a plate reader (Wallac Microbeta; Perkin Elmer, USA).

PKA = molecular target: T2, PKA (Homo sapiens, UniProt P17612); assay: Biochemical PKA assay (flashplate); conditions: 100 nM ATP; read-out: PKA inhibition: −log IC50 (converted)
T2 construct: His; purchased PanVera, USA #R3791; host or cells: E. coli
Description: For the biochemical PKA assay the catalytic subunit of PKA is expressed in E. coli as a His-tagged human recombinant protein and purified accordingly (PanVera, USA; #R3791).
In order to study the kinase inhibition activity of the compounds according to the invention, a flashplate-based assay has been developed for the serine/threonine kinase, PKA. The assay is run in 96 well plates by incubating 1 ng/well His-PKA (PanVera, USA; #R3791), 0.5 μM/well PKA peptide (#12-394; Upstate, USA) as substrate, 10 μl of compound of invention (test compounds were dissolved as 10 mM solutions in dimethylsulfoxide (DMSO) and subsequently diluted) and 100 nM ATP (including ^33P-ATP) in 100 μl of reaction buffer ([…], pH7,5; 3 mM MgCl2; 3 mM MnCl2; 3 μM Na-Orthovanadat; 1 mM DTT) for 80 minutes at 22° C. The reactions are stopped by adding 100 μl stopping buffer (2% H3PO4 for 5 minutes) and are washed 3 times by using washing buffer (200 μl 1×PBS). Relying on the incorporation of ^33P into the peptide substrate, the detection is based on the adhesion of the phosphorylated peptide to the surface of scintillator-coated Flash plates (Perkin Elmer, USA; #SMP-103). This phosphorylation is measured by counting the plate for 60 sec. using a plate reader (Wallac Microbeta; Perkin Elmer, USA). By using this method the IC50 of the PKA inhibition is determined.

MCF7 cells = assay: Cellular proliferation/cytotoxicity assay (Alamar Blue), MCF7; conditions: Homo sapiens, MCF7, 48 h, read-out: Anti-proliferative/cytotoxic activity: IC50 MCF7
MDA-MB-468 cells = assay: Cellular proliferation/cytotoxicity assay (Alamar Blue), MDA-MB-468; conditions: Homo sapiens, MDA-MB-468, 48 h, read-out: Anti-proliferative/cytotoxic activity: IC50 MDA468
Description: The anti-proliferative activity of the compounds as described herein, is evaluated using MCF7 and MDA-MB-468 (ATCC HTB-22 and HTB-132) cell lines and the Alamar Blue (Resazurin) cell viability assay (O'Brien et al. Eur J Biochem 267, 5421-5426, 2000). Resazurin is reduced to the fluorescent resorufin by cellular dehydrogenase activity, correlating with viable, proliferating cells. Test compounds are dissolved as 10 mM solutions in DMSO and subsequently diluted. MCF7 or MDA-MB-434 cells were seeded into 96 well flat bottom plates at a density of 10000 cells/well (MCF7) or 5000 cells/well (MDA-MB-468) in a volume of 200 μl/well. 24 hours after seeding, 1 μl each of the compound dilutions are added into each well of the 96 well plates. Each compound dilution is tested as at least as duplicates. Wells containing untreated control cells were filled with 200 μl DMEM containing 0.5% v:v DMSO. The cells are then incubated with the substances for 48 hours at 37° C. in a humidified atmosphere containing 5% carbon dioxide. To determine cell viability, 20 μl of a Resazurin solution (Sigma; 90 mg/l) are added. After 4 hours incubation at 37° C. the fluorescence is measured at an extinction of 544 nm and an emission of 590 nm (Wallac Victor2; Perkin Elmer, USA). For the calculation of the cell viability the emission value from untreated cells is set as 100% viability and the emission rates of treated cells are set in relation to the values of untreated cells. Viabilities are expressed as % values. The corresponding IC50 values of the compounds for cytotoxic activity are determined from the concentration-effect curves by means of non-linear regression. The analysis of the data is performed using a biostatistical program (GraphPad Prism, USA).

T1 sequence (P31749 107-480, stated change not applied): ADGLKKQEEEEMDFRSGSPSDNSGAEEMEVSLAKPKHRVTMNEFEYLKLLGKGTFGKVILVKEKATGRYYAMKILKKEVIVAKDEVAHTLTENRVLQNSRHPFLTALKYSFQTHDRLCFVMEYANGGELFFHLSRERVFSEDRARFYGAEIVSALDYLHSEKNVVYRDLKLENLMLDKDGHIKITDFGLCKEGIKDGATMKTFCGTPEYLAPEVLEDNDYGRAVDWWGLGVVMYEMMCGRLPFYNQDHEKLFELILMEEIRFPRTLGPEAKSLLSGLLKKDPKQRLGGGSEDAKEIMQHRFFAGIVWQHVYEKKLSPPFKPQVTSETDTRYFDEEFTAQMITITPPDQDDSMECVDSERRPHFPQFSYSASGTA

| Structure (SMILES) | IC50 (GST-ΔPH-Akt1) [µM] | IC50 (PKA) [µM] | IC50 (MCF7 cells) [µM] | IC50 (MDA-MB-468 cells) [µM] |
| --- | --- | --- | --- | --- |
| O=C(Nc1ccc(Nc2nc(-c3cccc4c3oc3ccccc34)cc3ccnn23)cc1)c1ccc2c(c1)CNCC2 [Example 35, 1,2,3,4-Tetrahydro-isoquinoline-7-carboxylic acid [4-(5-dibenzofuran-4-yl-pyrazolo[1,5-c]pyrimidin-7-ylamino)-phenyl]-amide] | ≤ 1.75 | > 100 | ≤ 16.9 | ≤ 13.6 |
| NCc1ccc(C(=O)Nc2ccc(Nc3nc(-c4cccc5c4oc4ccccc45)cc4ccnn34)cc2)o1 [Example 38, 5-Aminomethyl-furan-2-carboxylic acid [4-(5-dibenzofuran-4-yl-pyrazolo[1,5-c]pyrimidin-7-ylamino)-phenyl]-amide] | ≤ 1.75 | > 100 | ≤ 16.9 | ≤ 13.6 |
| CC(C)(N)c1ccc(C(=O)Nc2ccc(Nc3nc(-c4cccc5c4oc4ccccc45)cc4ccnn34)cc2)cc1 [Example 39, 4-(1-Amino-1-methyl-ethyl)-N-[4-(5-dibenzofuran-4-yl-pyrazolo[1,5-c]pyrimidin-7-ylamino)-phenyl]-benzamide] | ≤ 1.75 | 6.31 to 100 | ≤ 16.9 | ≤ 13.6 |
| NCc1ccc(C(=O)Nc2ccc(Nc3nc(-c4ccc5cc(OCc6ccccc6)ccc5c4)cc4ccnn34)cc2)cc1 [Example 42, 4-Aminomethyl-N-{4-[5-(6-benzyloxy-naphthalen-2-yl)-pyrazolo[1,5-c]pyrimidin-7-ylamino]-phenyl}-benzamide] | ≤ 1.75 | > 100 | ≤ 16.9 | ≤ 13.6 |
| CCOc1ccc2cc(-c3cc4ccnn4c(Nc4ccc(NC(=O)c5ccc(CN)cc5)cc4)n3)ccc2c1 [Example 46, 4-Aminomethyl-N-{4-[5-(6-ethoxy-naphthalen-2-yl)-pyrazolo[1,5-c]pyrimidin-7-ylamino]-phenyl}-benzamide] | ≤ 1.75 | > 100 | ≤ 16.9 | ≤ 13.6 |
| COCCOc1ccc2cc(-c3cc4ccnn4c(Nc4ccc(NC(=O)c5ccc(CN)cc5)cc4)n3)ccc2c1 [Example 47, 4-Aminomethyl-N-(4-{5-[6-(2-methoxy-ethoxy)-naphthalen-2-yl]-pyrazolo[1,5-c]pyrimidin-7-ylamino}-phenyl)-benzamide] | ≤ 1.75 | > 100 | ≤ 16.9 | ≤ 13.6 |
| NCc1cncc(C(=O)Nc2ccc(Nc3nc(-c4cccc5c4oc4ccccc45)cc4ccnn34)cc2)c1 [Example 52, 5-Aminomethyl-N-[4-(5-dibenzofuran-4-yl-pyrazolo[1,5-c]pyrimidin-7-ylamino)-phenyl]-nicotinamide] | ≤ 1.75 | > 100 | ≤ 16.9 | ≤ 13.6 |
| NCc1ccnc(C(=O)Nc2ccc(Nc3nc(-c4cccc5c4oc4ccccc45)cc4ccnn34)cc2)c1 [Example 53, 4-Aminomethyl-pyridine-2-carboxylic acid [4-(5-dibenzofuran-4-yl-pyrazolo[1,5-c]pyrimidin-7-ylamino)-phenyl]-amide] | ≤ 1.75 | > 100 | ≤ 16.9 | ≤ 13.6 |
| COc1ccc(-c2ccc(-c3cc4ccnn4c(Nc4ccc(NC(=O)c5ccc(CN)cc5)cc4)n3)cc2)cc1 [Example 55, 4-Aminomethyl-N-{4-[5-(4′-methoxy-biphenyl-4-yl)-pyrazolo[1,5-c]pyrimidin-7-ylamino]-phenyl}-benzamide] | ≤ 1.75 | > 100 | ≤ 16.9 | ≤ 13.6 |
| COc1ccccc1-c1ccc(-c2cc3ccnn3c(Nc3ccc(NC(=O)c4ccc(CN)cc4)cc3)n2)cc1 [Example 56, 4-Aminomethyl-N-{4-[5-(2′-methoxy-biphenyl-4-yl)-pyrazolo[1,5-c]pyrimidin-7-ylamino]-phenyl}-benzamide] | ≤ 1.75 | 6.31 to 100 | ≤ 16.9 | ≤ 13.6 |
| O=C(Nc1ccc(Nc2nc(-c3cccc4c3oc3ccccc34)cc3ccnn23)cc1)c1ccc(CNCCO)cc1 [Example 57, N-[4-(5-Dibenzofuran-4-yl-pyrazolo[1,5-c]pyrimidin-7-ylamino)-phenyl]-4-[(2-hydroxy-ethylamino)-methyl]-benzamide] | ≤ 1.75 | > 100 | ≤ 16.9 | ≤ 13.6 |
| O=C(Nc1ccc(Nc2nc(-c3cccc4c3oc3ccccc34)cc3ccnn23)cc1)c1ccc2c(c1)CCNC2 [Example 58, 1,2,3,4-Tetrahydro-isoquinoline-6-carboxylic acid [4-(5-dibenzofuran-4-yl-pyrazolo[1,5-c]pyrimidin-7-ylamino)-phenyl]-amide] | ≤ 1.75 | > 100 | ≤ 16.9 | ≤ 13.6 |
| NCc1ccc(C(=O)Nc2ccc(Nc3nc(-c4cccc5c4oc4ccccc45)cc4ccnn34)cc2)nc1 [Example 65, 5-Aminomethyl-pyridine-2-carboxylic acid [4-(5-dibenzofuran-4-yl-pyrazolo[1,5-c]pyrimidin-7-ylamino)-phenyl]-amide] | ≤ 1.75 | 6.31 to 100 | ≤ 16.9 | ≤ 13.6 |
| NCc1ccc(C(=O)Nc2ccc(Nc3nc(-c4ccc(-c5ccc(F)cc5)cc4)cc4ccnn34)cc2)cc1 [Example 67, 4-Aminomethyl-N-{4-[5-(4′-fluoro-biphenyl-4-yl)-pyrazolo[1,5-c]pyrimidin-7-ylamino]-phenyl}-benzamide] | ≤ 1.75 | 6.31 to 100 | ≤ 16.9 | ≤ 13.6 |
| NCc1ccc(C(=O)Nc2ccc(Nc3nc(-c4ccc(I)cc4)cc4ccnn34)cc2)cc1 [Example 68, 4-Aminomethyl-N-{4-[5-(4-iodo-phenyl)-pyrazolo[1,5-c]pyrimidin-7-ylamino]-phenyl}-benzamide] | ≤ 1.75 | 6.31 to 100 | ≤ 16.9 | ≤ 13.6 |
| NCc1ccc(C(=O)Nc2ccc(Nc3nc(-c4ccc(-c5ccccc5F)cc4)cc4ccnn34)cc2)cc1 [Example 69, 4-Aminomethyl-N-{4-[5-(2′-fluoro-biphenyl-4-yl)-pyrazolo[1,5-c]pyrimidin-7-ylamino]-phenyl}-benzamide] | ≤ 1.75 | 6.31 to 100 | ≤ 16.9 | ≤ 13.6 |
| NCc1ccc(C(=O)Nc2ccc(Nc3nc(-c4ccc(-c5cccc(F)c5)cc4)cc4ccnn34)cc2)cc1 [Example 70, 4-Aminomethyl-N-{4-[5-(3′-fluoro-biphenyl-4-yl)-pyrazolo[1,5-c]pyrimidin-7-ylamino]-phenyl}-benzamide] | ≤ 1.75 | 6.31 to 100 | ≤ 16.9 | ≤ 13.6 |
